{
  "source": "patent US10561653B2",
  "about": "(NOVARTIS AG, priority 2015, dated 2020)",
  "key": {"[1]": {"system": "freshly resected NSCLC tumors (human lung tumour explants)", "test": "ex vivo human lung tumour explants: IFNg secretion (IFN-γ ELISA) as measure of T cell (TIL) reactivity", "assay_type": "cell-based", "details": "for secretion of IFNg of tumor cells: NSCLC tumors from Hospital Clínico in Barcelona; for interferon gamma secretion from lung tumor cells stimulated with IL-2: FIG. 3", "protocol": "(§1) All experiments were carried out in accordance with guidelines set out by the Animal Experimental Ethics Committee. […] Vehicle consisted of 0.1% Tween 80 and 0.5% sodium carboxymethylcellulose (NaCMC) in water. Mice were euthanized at day 15, lungs harvested and tumor nodules counted under dissecting microscope. […] Freshly resected NSCLC tumors were obtained through the Tissue Core at Moffitt Cancer Center. The tumor was disaggregated for 2 hours in a Collagenase/DNase solution in the presence of complete protease inhibitors (Roche). Total cells (Tu) were counted. […] IL-2 has been used in some experiments in order to stimulate the IFN-γ production in these very resistant tumor cells. […] IFNg (IFN-γ ELISA R&D Systems) was determinated as a measure of T cell reactivity to autologous tumor cells. […] The compounds A and B were tested using similar experimental conditions, with the exception that the freshly resected NSCLC tumors were obtained from the Hospital Clínico in Barcelona. […] FIG. 8 a-g show the results obtained in each case. […] This is considered a clear signal of immune stimulation of the infiltrating lymphocytes presents in the tumors. […] 4. […] A compound of Formula I will be administered orally to the patient twice daily, fasting, at a dose of 80 mg, 160 mg, 320 mg or 640 mg throughout a cycle of 28 days. An anti-PD-1 antibody will be administered at a dose of about 300 mg or about 400 mg once every 3 week or once every 4 weeks. The anti-PD-1 antibody will be administered via IV infusion over a period of 30 minutes to 2 h. The compound of Formula I will be administered fasting immediately prior to the infusion with the anti-PD-1 antibody. In order to determine efficacy, baseline evaluations will be performed as closely as possible to the beginning of treatment and never more than 4 weeks before the beginning of the treatment. In addition to a baseline scan, confirmatory scans will be obtained 4-6 weeks following initial documentation of objective response. Response and progression will be evaluated in this study using the new international criteria proposed by the revised Response Evaluation Criteria in Solid Tumors (RECIST) guideline (version 1.1; Eisenhauer E A, Therasse P, Bogaerts J, et al. New response evaluation criteria in solid tumours: revised RECIST guideline (version 1.1). Eur J Cancer 2009; 45:228-47). Changes in the largest diameter (unidimensional measurement) of the tumor lesions and the shortest diameter in the case of malignant lymph nodes are used (Schwartz L H, Bogaerts J, Ford R, et al. Evaluation of lymph nodes with RECIST 1.1. Eur J Cancer 2009; 45:261-7). All The same method of assessment and the same technique will be used to characterize each identified and reported lesion at baseline and during follow-up. Imaging-based evaluation such as Chest x-ray, conventional CT and MRI will be used."}, "B16-CD73+ tumor cells": {"system": "B16-CD73+ tumor cells", "test": "anti-tumor activity in syngeneic mice injected intravenously with B16-CD73+ tumor cells (lung nodules)", "assay_type": "in vivo, C57Bl/6 mice", "details": "for number of lung nodules: oral, 30 mg/Kg/day, similar conditions, University of Barcelona, FIGS. 1b and 1c", "protocol": "(§2) (mean lung nodules of 9-10 mice/group±standard errors are shown; *: P<0.05 by Student T test).\n(§3) FIGS. 1b and 1c show the anti-tumoral activity of orally administered Compound A and Compound B in two syngeneic mouse models of cancer. (mean lung nodules of 9-10 mice/group±standard errors are shown; *: P<0.05 by Student T test).\n(§4) All experiments were carried out in accordance with guidelines set out by the Animal Experimental Ethics Committee. […] Vehicle consisted of 0.1% Tween 80 and 0.5% sodium carboxymethylcellulose (NaCMC) in water. Mice were euthanized at day 15, lungs harvested and tumor nodules counted under dissecting microscope. […] Freshly resected NSCLC tumors were obtained through the Tissue Core at Moffitt Cancer Center. The tumor was disaggregated for 2 hours in a Collagenase/DNase solution in the presence of complete protease inhibitors (Roche). Total cells (Tu) were counted. […] IL-2 has been used in some experiments in order to stimulate the IFN-γ production in these very resistant tumor cells. […] IFNg (IFN-γ ELISA R&D Systems) was determinated as a measure of T cell reactivity to autologous tumor cells. […] The compounds A and B were tested using similar experimental conditions, with the exception that the freshly resected NSCLC tumors were obtained from the Hospital Clínico in Barcelona. […] FIG. 8 a-g show the results obtained in each case. […] This is considered a clear signal of immune stimulation of the infiltrating lymphocytes presents in the tumors. […] 4. […] A compound of Formula I will be administered orally to the patient twice daily, fasting, at a dose of 80 mg, 160 mg, 320 mg or 640 mg throughout a cycle of 28 days. […] Response and progression will be evaluated in this study using the new international criteria proposed by the revised Response Evaluation Criteria in Solid Tumors (RECIST) guideline (version 1.1; Eisenhauer E A, Therasse P, Bogaerts J, et al. New response evaluation criteria in solid tumours: revised RECIST guideline (version 1.1). Eur J Cancer 2009; 45:228-47). […]"}, "MCA205 tumor cells": {"system": "MCA205 tumor cells", "test": "anti-tumor activity in syngeneic mice injected intravenously with MCA205 tumor cells (lung nodules)", "assay_type": "in vivo, C57Bl/6 mice", "details": "for number of lung nodules: oral, 30 mg/Kg/day, similar conditions, University of Barcelona, FIGS. 1b and 1c", "protocol": "as §2, §3, §4"}, "[2]": {"system": "resistant human lung tumor explants", "test": "Bioplex assay of interleukins secretion in supernatants of resistant human lung tumor explants", "assay_type": "cell-based", "protocol": "as §1"}, "[3]": {"test": "toxicity profile in different animal models", "assay_type": "in vivo", "details": "in comparison with classical chemotherapy and other adenosine receptor antagonists"}, "[4]": {"details": "compound alone, 1 μM, FIGS. 4-7 (IL-2 stimulated)"}, "[5]": {"details": "in combination with an anti-PD-L1 or an anti-PD-1 antibody, FIGS. 4-7"}, "[6]": {"details": "compound alone, supernatants from ex vivo experiments, FIG. 8"}},
  "data": [
    {"smiles": "N#Cc1c(N)nc(-n2cccn2)nc1-n1cccn1", "note": "[Compound B, 4-amino-2,6-di-(1H-pyrazol-1-yl)pyrimidine-5-carbonitrile, reference compound]", "values": [
      {"measurement": "secretion of IFNg of tumor cells", "setting": "[1]; [4]", "result": "not able to increase the secretion of IFNg"},
      {"measurement": "secretion of IFNg of tumor cells", "setting": "[1]; [5]", "result": "not able to increase the secretion of IFNg"},
      {"measurement": "number of lung nodules", "setting": "B16-CD73+ tumor cells", "result": "no significant reduction"},
      {"measurement": "number of lung nodules", "setting": "MCA205 tumor cells", "result": "no significant reduction"}
    ]},
    {"smiles": "Nc1nc(-n2cccn2)nc(-n2cccn2)c1Cl", "note": "[Compound A, 5-chloro-2,6-di-(1H-pyrazol-1-yl)pyrimidin-4-amine, reference compound]", "values": [
      {"measurement": "secretion of IFNg of tumor cells", "setting": "[1]; [4]", "result": "not able to increase the secretion of IFNg"},
      {"measurement": "secretion of IFNg of tumor cells", "setting": "[1]; [5]", "result": "not able to increase the secretion of IFNg"},
      {"measurement": "number of lung nodules", "setting": "B16-CD73+ tumor cells", "result": "no significant reduction"},
      {"measurement": "number of lung nodules", "setting": "MCA205 tumor cells", "result": "no significant reduction"}
    ]},
    {"smiles": "Nc1nc(-n2cccn2)nc(-n2cccn2)c1Br", "note": "[Compound of formula (I), 5-bromo-2,6-di-(1H-pyrazol-1-yl)pyrimidin-4-amine]", "values": [
      {"measurement": "TIL function (IFNg concentration)", "setting": "[1]; 1 μM in combination with anti-PD-L1 antibody, other tumors", "result": "synergistically capable of restoring TIL function"},
      {"measurement": "TIL function (IFNg concentration)", "setting": "[1]; 1 μM in combination with anti-PD-L1 antibody, some of the samples", "result": "improved TIL function (as determined by measuring IFNg concentration) in additive way"},
      {"measurement": "interferon gamma secretion from lung tumor cells stimulated with IL-2", "setting": "[1]; compound alone", "result": "significantly increased"},
      {"measurement": "interferon gamma secretion from lung tumor cells stimulated with IL-2", "setting": "[1]; in combination with anti-PD-1 antibody, compared with compound alone", "result": "more pronounced"},
      {"measurement": "interferon gamma secretion of non-stimulated lung tumor cells", "setting": "[1]; in combination with anti-PD-L1 antibody, FIG. 2", "result": "significantly increase"},
      {"measurement": "TIL function (IFNg concentration)", "setting": "[1]; single agent, other tumors, compound 1 μM, antibody 10 mg/ml", "result": "had no effect on TIL function"},
      {"measurement": "TIL reactivity (IFNg concentration)", "setting": "[1]; single agent, some of the samples, 200,000 cells/well, 3 days, compound 1 μM, antibody 10 mg/ml", "result": "partially restored TIL reactivity"},
      {"measurement": "secretion of IL5 (Interleukin 5) to the medium", "setting": "[2]; [6]", "result": "significantly increase the secretion"},
      {"measurement": "secretion of IL10 (Interleukin 10) to the medium", "setting": "[2]; [6]", "result": "significantly increase the secretion"},
      {"measurement": "secretion of IL13 (Interleukin 13) to the medium", "setting": "[2]; [6]", "result": "significantly increase the secretion"},
      {"measurement": "secretion of IL17 (Interleukin 17) to the medium", "setting": "[2]; [6]", "result": "significantly increase the secretion"},
      {"measurement": "secretion of ILib (Interleukin 1b) to the medium", "setting": "[2]; [6]", "result": "significantly increase the secretion"},
      {"measurement": "secretion of MIP1b to the medium", "setting": "[2]; [6]", "result": "significantly increase the secretion"},
      {"measurement": "secretion of tumor necrosis factor α (TNFα) to the medium", "setting": "[2]; [6]", "result": "significantly increase the secretion"},
      {"measurement": "secretion of different interleukins", "setting": "[2]; in combination with either an anti PDL-1 or an anti-PD-1 antibody", "result": "increased the secretion of different interleukins of these tumors synergistically"},
      {"measurement": "tumor burden (lung nodule and lung metastasis)", "setting": "B16-CD73+ tumor cells; 3×10^5 B16-CD73+ cells i.v., 15 mg/kg/day oral gavage daily for 15 days vs vehicle, nodules counted day 15, FIG. 1a", "result": "significantly reduced tumor burden"},
      {"measurement": "toxicity profile", "setting": "[3]", "result": "low toxicity profile"},
      {"measurement": "tumor burden (lung nodule and lung metastasis)", "setting": "MCA205 tumor cells; 2×10^5 MCA205 cells i.v., 30 mg/kg/day oral gavage daily for 7 days vs vehicle, nodules counted day 15, FIG. 1a", "result": "significantly reduced tumor burden"}
    ]}
  ]
}
